Patent US6806278B2, “Amino-tetralin derivatives as muscarinic receptor antagonists” (Syntex (U.S.A.) LLC, priority 2001, dated 2004)

What was measured:
[1] = molecular target: T1, recombinant human muscarinic receptor m2 (Homo sapiens, UniProt P08172); test: Radioligand binding studies, [3H]N-methyl scopolamine, m2; settings: CHO cell membranes, [3H]N-methyl scopolamine 0.4 nM; pIC50 converted to pKi by Cheng-Prusoff
T1 construct: expressed in transfected cells; host or cells: Chinese hamster ovary (CHO) cells, membrane preparation
T1 sequence (P08172 1-466): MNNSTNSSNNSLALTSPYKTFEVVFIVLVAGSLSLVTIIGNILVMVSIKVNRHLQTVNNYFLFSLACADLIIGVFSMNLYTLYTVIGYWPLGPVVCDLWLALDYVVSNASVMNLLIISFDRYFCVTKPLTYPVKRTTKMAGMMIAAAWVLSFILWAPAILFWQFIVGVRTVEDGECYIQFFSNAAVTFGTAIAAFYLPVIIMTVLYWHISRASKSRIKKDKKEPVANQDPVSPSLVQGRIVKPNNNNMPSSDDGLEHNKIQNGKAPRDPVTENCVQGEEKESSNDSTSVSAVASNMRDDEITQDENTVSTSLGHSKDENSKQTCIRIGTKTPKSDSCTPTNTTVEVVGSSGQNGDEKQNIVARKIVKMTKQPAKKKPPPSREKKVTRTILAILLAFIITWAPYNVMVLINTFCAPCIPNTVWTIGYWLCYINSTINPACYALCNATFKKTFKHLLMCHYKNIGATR
Experimental: (§1) The compounds of this invention are muscarinic receptor antagonists. The muscarinic receptor affinity of test compounds can be determined by an in vitro receptor binding assay which utilizes a cell membrane preparation from the Chinese hamster ovary cells expressing the recombinant human muscarinic receptors (M1-M5), and is described in more detail in Example 12.
(§2) The inhibitory activity of compounds of this invention in vitro was determined using a modification of the method described in Hegde, S. S. et al. 1997 Br. J. Pharmacol., 120, 1409-1418.
(§3) Cell membranes from Chinese hamster ovary cells expressing the recombinant human muscarinic receptors (m1-m5) were employed. The assays were conducted with the radioligand [^3H]N-methyl scopolamine (0.4 nM, specific activity 84 Ci·mmol^−1) in a final volume of 0.25 mL Tris-Krebs buffer. Non-specific binding was defined with 1 μM atropine. Assays were performed using scintillation proximity assay technology. Competition-displacement curves were generated using 10 concentrations of test compounds and were analyzed by iterative curve fitting to a four parameter logistic equation. pIC50 values (-log of the IC50) were converted to pKi values using the Cheng-Prusoff equation.

[2] = molecular target: T2, recombinant human muscarinic receptor m3 (Homo sapiens, UniProt P20309); test: Radioligand binding studies, [3H]N-methyl scopolamine, m3; settings: CHO cell membranes, [3H]N-methyl scopolamine 0.4 nM; pIC50 converted to pKi by Cheng-Prusoff
T2 construct: expressed in transfected cells; host or cells: Chinese hamster ovary (CHO) cells, membrane preparation
T2 sequence (P20309 whole entry): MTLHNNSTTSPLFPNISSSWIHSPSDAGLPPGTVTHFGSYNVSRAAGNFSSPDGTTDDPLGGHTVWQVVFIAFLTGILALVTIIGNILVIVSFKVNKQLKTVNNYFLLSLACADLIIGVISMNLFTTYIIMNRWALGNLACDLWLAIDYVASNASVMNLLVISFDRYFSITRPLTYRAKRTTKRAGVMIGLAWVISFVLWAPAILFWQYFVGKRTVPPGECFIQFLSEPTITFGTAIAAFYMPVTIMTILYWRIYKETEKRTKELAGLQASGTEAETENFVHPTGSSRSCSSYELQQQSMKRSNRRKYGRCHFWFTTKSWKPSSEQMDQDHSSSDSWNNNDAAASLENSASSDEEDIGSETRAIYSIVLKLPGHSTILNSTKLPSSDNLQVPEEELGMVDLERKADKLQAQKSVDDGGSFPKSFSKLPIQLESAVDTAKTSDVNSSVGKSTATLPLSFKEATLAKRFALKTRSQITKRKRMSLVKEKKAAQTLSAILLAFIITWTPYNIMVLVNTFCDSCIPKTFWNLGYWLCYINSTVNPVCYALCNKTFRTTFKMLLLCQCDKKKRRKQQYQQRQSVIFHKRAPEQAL
Experimental: as §1, §2, §3

| Compound | Ki [1] | Ki [2] |
| --- | --- | --- |
| CCCN(C1CCN(C(=O)c2ccccc2C)CC1)C1CCc2ccc(OC)cc2C1 (centres unmarked) [Cpd 3, {4-[(7-methoxy-1,2,3,4-tetrahydro-naphthalen-2-yl)-propyl-amino]-piperidin-1-yl}o-tolyl-methanone] | 41.7 nM | 49 nM |
| CCCN(C1CCN(C(=O)c2ccco2)CC1)C1CCc2ccc(OC)cc2C1 (centres unmarked) [Cpd 4, furan-2-yl-{4-[(7-methoxy-1,2,3,4-tetrahydro-naphthalen-2-yl)-propyl-amino]-piperidin-1-yl}-methanone] | 26.3 nM | 51.3 nM |
| CCCN(C1CCN(C(=O)N(CC)CC)CC1)C1CCc2ccc(OC)cc2C1 (centres unmarked) [Cpd 5, 4-[(7-methoxy-1,2,3,4-tetrahydro-naphthalen-2-yl)-propyl-amino]-piperidine-1-carboxylic acid diethylamide] | 3.16 nM | 5.89 nM |
| CCCN(C1CCN(C(C)=O)CC1)C1CCc2ccc(OC)cc2C1 (centres unmarked) [Cpd 15, 1-{4-[(7-methoxy-1,2,3,4-tetrahydro-naphthalen-2-yl)-propyl-amino]-piperidin-1-yl}ethanone] | 4.27 nM | 6.76 nM |
| CCCN(C1CCN(C(=O)C2CCNCC2)CC1)C1CCc2cc(OC)c(OC)cc2C1 (centres unmarked) [Cpd 28, {4-[(6,7-dimethoxy-1,2,3,4-tetrahydro-naphthalen-2-yl)-propyl-amino]-piperidin-1-yl}-piperidin-4-yl-methanone] | 5.01 nM | 11.5 nM |

Stronger by Ki [1], values ahead:

| Ki [1] | Ki [2] | Compound |
| --- | --- | --- |
| 2.69 nM | 1.48 nM | CCCN(C1CCN(C(=O)N2CCOCC2)CC1)C1CCc2ccc(OC)cc2C1 (centres unmarked) [Cpd 1, {4-[(7-methoxy-1,2,3,4-tetrahydro-naphthalen-2-yl)-propyl-amino]-piperidin-1-yl}-morpholin-4-yl-methanone] |
| 0.977 nM | 1.58 nM | CCCN(C1CCN(C(=O)N2CCNCC2)CC1)C1CCc2ccc(OC)cc2C1 (centres unmarked) [Cpd 16, {4-[(7-methoxy-1,2,3,4-tetrahydro-naphthalen-2-yl)-propyl-amino]-piperidin-1-yl}-piperazin-1-yl-methanone] |
| 0.575 nM | 2.75 nM | CCCN(C1CCN(C(=O)N2CCN(C)CC2)CC1)C1CCc2ccc(OC)cc2C1 (centres unmarked) [Cpd 23, {4-[(7-methoxy-1,2,3,4-tetrahydro-naphthalen-2-yl)-propyl-amino]-piperidin-1-yl}-(4-methyl-piperazin-1-yl)-methanone] |
| 1.82 nM | 0.891 nM | CCCN(C1CCN(C(=O)C2CCNCC2)CC1)C1CCc2ccc(Br)cc2C1 (centres unmarked) [Cpd 35, {4-[(7-bromo-1,2,3,4-tetrahydro-naphthalen-2-yl)-propyl-amino]-piperidin-1-yl}-piperidin-4-yl-methanone] |
| 2.19 nM | 0.955 nM | CCCN(C1CCN(C(=O)C2CCNCC2)CC1)[C@@H]1CCc2ccc(OC)cc2C1 [Cpd 39, {4-[((R)-7-methoxy-1,2,3,4-tetrahydro-naphthalen-2-yl)-propyl-amino]-piperidin-1-yl}-piperidin-4-yl-methanone] |
